The text below walks through data of US20140134178A1, “PHOSPHORYLATION OF HISTONES AND USES THEREOF” (H. LEE MOFFITT CANCER CENTER AND RESEARCH INSTITUTE, priority 2012, published 2014).

In series [1] the test system is LNCaP-caAck expressing cells. The series can be described thus: Prostate xenograft tumor growth, LNCaP-caAck cells in castrated nude male mice. The series is classed as in vivo. The settings on record: 4 mg/kg of body weight per injection, five times. Here is the method: Castrated nude male mice were injected with LNCaP-caAck expressing cells. Mice were injected with AIM-100 (4 mg/kg of body weight per injection) on five times (n=8) and tumor volumes were measured.

Series [2] deals with T1, Ack1 (Homo sapiens, UniProt Q07912). The series is described as follows: H4 Tyr51-phosphorylation in EGF-treated HEK293T cells (IP/immunoblot). It is filed as cell-based. Further details: endogenous in cells; host or cells: HEK293T. The settings on record: serum starved HEK293T, EGF+AIM-100.
Protocol: To examine whether H4 is a Ack1 kinase substrate, cells were treated with EGF or EGF+Ack1 inhibitor, AIM-100 (Mahajan, K., et al. Prostate 70, 1274-1285 (2010)). Specifically, serum starved HEK293T were treated with EGF or EGF+AIM-100 and cells were harvested. […] Equal amounts of lysates were immunoblotted with H4 antibody or pTyr284-Ack1 antibody.
Series [3] concerns Ack1. The series can be described thus: Ack1 phosphorylation of histone H3 at Tyr99 in ligand-treated cell lines. The series is classed as cell-based. The source says: The discovery was made that Ack1 phosphorylates histone H3 at tyrosine 99. To delineate functional consequences of H3 Ty99-phosphorylation, phospho-antibodies were raised. […] Thus, marking of chromatin with H3-Tyr99-phosphorylation within AR-target gene promoters may suppress repressive dimethylation leading to transcriptional activation in androgen-deprived environment of CRPC tumors. This study uncovers a previously unknown mechanism of regulation of pTyr267-AR-target gene expression, which can be therapeutically reversed by suppression of Ack1/AR/pTyr99-H3 signaling by AIM-100.

For a further series, the system named is Xenopus laevis embryos. The series can be described thus: Xenopus embryo injection, gastrulation/epiboly phenotype. The source says: Table 4 provides the phenotype distribution for surviving embryos (raw data are identical to those in Table 3).
In series [4] the target is T2, Ack1 (Homo sapiens, UniProt Q07912, E346K).
T2 construct: HA; made in house
It is filed as biochemical. To be noted: 5 uM for 1 hour at 30° C. The protocol:
To test whether Ack1 directly phosphorylates H4, in vitro kinase assay (Mahajan, K., et al. PLoS One 5, e9646 (2010)) was performed. […] HEK293 cells were treated with EGF or EGF+AIM-100 (5 uM, 14 hour) and lysates were immunoprecipitated with Ack1 antibodies followed by immunoblotting with H4 antibodies.

Series [5] has as its system PSA, NKX3,1 and TMPRSS2 genes. The series can be described thus: Testosterone-independent expression of AR-target genes. It is filed as cell-based.
The test system of another series is pTyr267-AR. The series can be described thus: ChIP-qPCR for pTyr267-AR binding to PSA, NKX3.1 and TMPRSS2 AREs in LAPC4 cells. The series is classed as cell-based. To be noted: 0.8 μM, 16 hr. The protocol: LAPC4 cells were treated with DHT (5 nM, 16 hr), EGF (10 ng/ml, 1 hr), or EGF and AIM-100 (0.8 μM, 16 hr) and ChIP analysis for pTyr267-AR binding to the PSA, NKX3.1 and TMPRSS2 AREs was performed followed by qPCR. Ack1 inhibition by AIM-100 suppressed recruitment of pTyr-AR to PSA, NKX3,1 and TMPRSS2 promoters (FIGS. 8A-8C).

Series [6] concerns the target T1, Ack1. The series is classed as biochemical. To be noted: purified Ack1, H4 peptide, ELISA with pY88 antibodies. Also on record: endogenous in cells; host or cells: LAPC4. Here is the method: WEE1 and Ack1 are two non-receptor tyrosine kinases or NRTKs that have known nuclear functions. To determine whether WEE1 and Ack1 can directly target H4 for Tyr88-phosphorylation, this study performed in vitro kinase assay. In brief, the Streptavidin coated 96-well plates (R&D systems) were incubated with biotinylated H4-derived peptide […] (SEQ ID NO: 64) for 1 hour. The plates were washed and the purified WEE1 or Ack1 were added in kinase buffer (20 mM HEPES, 150 mM NaCl, 0.5% Triton X-100, 10% Glycerol, phosphatase and protease inhibitors) containing ATP and MgCl2. After 2 hours of incubation, plates were washed with phosphate buffered saline containing 0.1% Tween 20 (PBST) and blocked in 3% BSA. The pY88-H4 antibodies (at 1:500 dilution) were added and incubated for 1 hour. Unbound antibodies were washed and HRP-conjugated anti-mouse secondary Antibodies (1:2000) were added. Magnitude of phosphorylation was detected using developer solution (OPD tablets, Sigma) and the plates were read at 450 nm. As a negative control, no kinase and no peptide reactions were used. The biotinylated phosphopeptide […]p[…] (SEQ ID NO: 65) was used as a positive control.

Series [7] addresses T1, Ack1. The series is classed as cell-based. Also on record: endogenous in cells; host or cells: LAPC4. The protocol:
The prostate cancer derived cells, LAPC4 were treated with AIM-100 (7 uM, 16 hours). The equal amount of cell lysates were subjected to immunoblotting with H3K9me3 and histone H3 antibodies. […] The histone H3 antibodies were used as a control to indicate equal amount of protein.
LAPC4 cells were treated with EGF or EGF and AIM-100 and the lysates were immunoblotted with H3K9 dimethyl and H3K27 dimethyl antibodies.

The subject of series [8] is core histone genes located in Hist1 cluster. The series can be described thus: qRT-PCR of histone genes in synchronized cells (8-histone gene signature). The series is classed as cell-based. The settings on record: MK1775 0.6 uM, 14 hr; 8.30 hours post-release. The protocol: Human cells have 55 distinct histone genes each encoding a fraction of core histones. This study determined histone levels using 20 of these genes. In untreated cells, rapid decrease in transcripts of all of these histone genes was observed when RNA levels of 6.30 hours post-release samples (late S phase) were compared with 8.30 hours post-release (G2/M phase) samples (FIG. 33a-h).

In series [9] the test system is WEE1 expressing cancer cell lines. To be noted: cited from earlier work.
For series [10], the system named is core histone genes in Hist1 cluster. The series is described as follows: Quantitative RT-PCR of core histone transcripts in synchronized MEFs. The series is classed as cell-based, mouse. To be noted: MK1775 0.625 μM, 14 hr; 8.30 hours post-release. Here is the method: MEFs or H1975 were grown to 60-70% confluency in serum rich media. Thymidine is added at a final concentration of 2 mM and incubated for 17 hours. Cells were washed three times with phosphate buffered saline (PBS) and fresh serum containing media was added. After 10 hours, thymidine was added again to 2 mM final concentration. The cells were incubated for 17 hours and washed three times with PBS, replaced with serum containing media and time points were collected. All RT reactions were done (Mahajan, K. et al. PLoS One 5, e9646 (2010)) at the same time so that the same reactions could be used for all gene studies. For the construction of standard curves, serial dilutions of pooled sample RNA were used (50, 10, 2, 0.4, 0.08, and 0.016 ng) per reverse transcriptase reaction. One “no RNA” control and one “no Reverse Transcriptase” (No RT) controls were included for the standard curve. Three reactions were performed for each sample: 10 ng, 0.8 ng, and a No RT (10 ng) control. Real-time quantitative PCR analyses were performed using the ABI PRISM 7900HT Sequence Detection System (Applied Biosystems). […] Data were analyzed using SDS software version 2.2.2 and exported into an Excel spreadsheet. […]

Series [11] concerns cancers and cancer cell lines. To be noted: cited from earlier work.
Series [12] has as its system NPAT and RNA polymerase II at site II. The series is described as follows: ChIP-qPCR with NPAT or RNA polymerase II antibodies at Site II, synchronized MEFs. It is filed as cell-based, mouse. The settings on record: 6.30 hours post-release. Here is the method:
(§1) As a first step, extensive standardization of pTyr37-H2B antibodies were performed for its usage in ChIP. CHIP was performed using the Active Motif kit as per manufacturer's instructions. For ChIP synchronized MEFs were harvested at 0 and 6.30 hour post thymidine release (5×10^7 cells). Cells pellets were lysed in RLB buffer (Mahajan, N. P. et al. Proc. Nat. Acad. Sci. U.S.A. 104, 8438-8443 (2007); Mahajan, K. et al. Prostate 70, 1274-1285 (2010)) on ice for 10 minutes and sonicated for 25 seconds to shear DNA to an average length of 300-500 bp. The soluble chromatin was incubated overnight at 4° C. with pTyr37-H2B antibody. 20 μl of protein-A agarose was added and the beads were washed sequentially and DNA was eluted. Genomic DNA (Input) was prepared by treating aliquots of chromatin with RNase, proteinase-K followed by ethanol precipitation. Pellets were resuspended and the resulting DNA was quantified on a NanoDrop spectrophotometer. Extrapolation to the original chromatin volume allowed quantitation of the total chromatin yield. An aliquot of chromatin (20-30 μg) was pre-cleared with protein-A agarose beads (Invitrogen). Genomic DNA regions of interest were isolated using pTyr37-H2B antibody. […]
To understand the potential mechanism of repression of histone transcription the role of NPAT was assessed. […]

For series [13], the system named is pTyr37-H2B upstream of Hist1 cluster. The series can be described thus: Native ChIP-qPCR with pTyr37-H2B antibody, Site I and II upstream of Hist1 cluster, synchronized MEFs. It is filed as cell-based, mouse. To be noted: 6.30 hours post-release. The protocol:
MEFs or H1975 were grown to 60-70% confluency in serum rich media. Thymidine is added at a final concentration of 2 mM and incubated for 17 hours. Cells were washed three times with phosphate buffered saline (PBS) and fresh serum containing media was added. After 10 hours, thymidine was added again to 2 mM final concentration. The cells were incubated for 17 hours and washed three times with PBS, replaced with serum containing media and time points were collected.
as §1, with “Genomic DNA (Input) was prepared by treating aliquots of chromatin with RNase, proteinase-K followed by ethanol precipitation.” left out, “yield.” for “yield. An aliquot of chromatin (20-30 μg) was pre-cleared with protein-A agarose beads (Invitrogen). Genomic DNA regions of interest were isolated using pTyr37-H2B antibody.”

Setting [14] is: Table 3, antibodies 200 ng/em, AIM-100 200 pM/em.

Entries after “also recorded” stand apart in the source; their conditions may differ.

T1 sequence (Q07912 whole entry): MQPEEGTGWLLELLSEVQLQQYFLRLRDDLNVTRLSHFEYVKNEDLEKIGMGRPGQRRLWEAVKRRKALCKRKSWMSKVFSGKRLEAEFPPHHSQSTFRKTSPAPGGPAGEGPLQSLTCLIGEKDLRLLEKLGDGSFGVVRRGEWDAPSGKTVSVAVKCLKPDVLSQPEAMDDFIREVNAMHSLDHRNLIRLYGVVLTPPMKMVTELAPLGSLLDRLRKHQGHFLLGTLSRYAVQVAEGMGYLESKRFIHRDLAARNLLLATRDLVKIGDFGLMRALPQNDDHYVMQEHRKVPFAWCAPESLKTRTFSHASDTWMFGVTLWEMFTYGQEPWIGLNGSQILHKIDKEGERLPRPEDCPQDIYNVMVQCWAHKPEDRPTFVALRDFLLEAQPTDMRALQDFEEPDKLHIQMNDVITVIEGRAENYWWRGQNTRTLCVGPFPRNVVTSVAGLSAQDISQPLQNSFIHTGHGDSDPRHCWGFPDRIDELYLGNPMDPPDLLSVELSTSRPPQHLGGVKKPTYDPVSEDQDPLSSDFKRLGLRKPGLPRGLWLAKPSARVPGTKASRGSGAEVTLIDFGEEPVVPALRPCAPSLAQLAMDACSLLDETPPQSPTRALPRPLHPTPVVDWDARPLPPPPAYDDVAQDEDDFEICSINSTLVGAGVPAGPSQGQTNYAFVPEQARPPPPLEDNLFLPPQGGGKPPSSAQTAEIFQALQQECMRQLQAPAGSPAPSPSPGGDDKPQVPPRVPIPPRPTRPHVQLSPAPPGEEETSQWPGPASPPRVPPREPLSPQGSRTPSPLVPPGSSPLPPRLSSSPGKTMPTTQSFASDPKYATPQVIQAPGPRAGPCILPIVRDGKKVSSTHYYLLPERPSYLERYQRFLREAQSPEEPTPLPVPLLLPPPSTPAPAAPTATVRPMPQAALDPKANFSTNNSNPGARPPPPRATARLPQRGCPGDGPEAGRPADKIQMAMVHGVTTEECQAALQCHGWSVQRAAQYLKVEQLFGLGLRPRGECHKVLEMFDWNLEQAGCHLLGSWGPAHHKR
T2 sequence (Q07912 whole entry E346K): as the sequence (Q07912 whole entry) above, with E346K counted along it

For `c1ccc(-c2oc3ncnc(NC[C@@H]4CCCO4)c3c2-c2ccccc2)cc1` [AIM-100], in series [1], the “prostate xenograft tumor growth” value is given as “mitigated; also recorded: partially suppresses”. Moreover, at Ack1 [2], the “H4 pTyr51-phosphorylation” value is on record as “almost complete loss”. The “Ack1 phosphorylation of H3 at Tyr99” value in the series with Ack1 [3] is reported as “significantly compromised”. In the series on Xenopus laevis embryos (setting [14]), the “abn/delay, gastrulation is abnormal or delayed (% of total embryos)” value was determined as 6.7%; the “abn/delay, gastrulation is abnormal or delayed (number of embryos)” value is 15; the “dead (% of total embryos)” value was found to be 43%; the “dead (number of embryos)” value amounted to 97. Moreover, in the series with Xenopus laevis embryos (setting [14]), the “epib blk, epiboly block phenotype (% of total embryos)” value is reported as 29%; the “epib blk, epiboly block phenotype (number of embryos)” value is 65; the “epib red, partial phenotype (% of total embryos)” value is 8%; the “epib red, partial phenotype (number of embryos)” value is recorded as 18. Also, in the series with Xenopus laevis embryos (setting [14]), the “norm. (% of total embryos)” value came out at 11% and the “norm. (number of embryos)” value worked out at 24. The molecule also yielded a Tot survivors in the series with Xenopus laevis embryos (Table 4) of 128. Also, in the series on Xenopus laevis embryos (Table 4, surviving embryos), the “abn/delay (% of surviving embryos)” value is given as “(12%)”, the “abn/delay (number of surviving embryos)” value came to 15, the “epib blk (number of surviving embryos)” value amounted to 65 and the “epib red (number of surviving embryos)” value turned out to be 18. Also, in the series with Xenopus laevis embryos (Table 4, surviving embryos), the “normal (% of surviving embryos)” value came to 19% and the “normal (number of surviving embryos)” value is 24. The mortality rates in the series on Xenopus laevis embryos (by the onset of gastrulation, ~20 hours after microinjection at the 2-cell stage, 16° C.) is given as 43-45%. For the same molecule, in the series with Xenopus laevis embryos (in vivo), the “mortality at the onset of gastrulation versus controls” value is “Neither pTyr51-H4 nor AIM-100 lead to increased mortality” and the “timing or pattern of early cleavages” value is given as “did not alter”. In addition, in the series on Xenopus laevis embryos (surviving embryos), the “epib blk, epiboly block/involution failure (% of surviving embryos)” value is recorded as 51% and the “epib red, partial reduced epiboly phenotype (% of surviving embryos)” value stood at 14%. In addition, the “epib blk, epiboly block/involution failure (% of surviving embryos)” value with Xenopus laevis embryos (surviving embryos, listed as AIM 100) was “(51%)”. At Ack1 [4], the “H4 pTyr51-phosphorylation” value was “abrogated”. Besides, the “testosterone-independent expression of PSA, NKX3,1 and TMPRSS2 genes” value in series [5] is reported as “suppressed”. Further, the “recruitment of pTyr-AR to PSA, NKX3,1 and TMPRSS2 promoters” value with pTyr267-AR is listed as “suppressed”. Besides, the “H4 Tyr88-phosphorylation” value on Ack1 [6] is recorded as “significantly decreased; also recorded: significantly reduced”. Further, at Ack1 [7], the “H3K9 and K27 dimethylation and trimethylation” value is on record as “increased”. In addition, the “H3 K9 trimethylation” value on Ack1 [7] (LAPC4 cells, 7 uM, 16 hours) is reported as “increased; also recorded: significant increase”. Further, the “H3K9 and K27 dimethylation” value on Ack1 [7] (LAPC4 cells, EGF and AIM-100) is “increased”.

With MK-1775, the “histone mRNA levels” value is on record as “did not decrease” in [8] and “significant increase” in series [10]. Besides, in [9], the apoptosis result is reported as “selectively induce apoptosis”. Further, the “sensitization to DNA damaging agents such as gemcitabine, 5-fluorouracil” value in series [11] is on record as “able to sensitize”. Moreover, the “recruitment of NPAT and RNA polymerase II” value in [12] is reported as “binding was detected”. Besides, the “occurrence of pTyr37-H2B at site I and II” value in series [13] is on record as “significantly reduced”.
